Assay results reported in patent publication US12357652B2, “Formulations of phosphoramidate derivatives of nucleoside drugs” (priority 2015, dated 2025).
Where two headings read alike, the source gives them in different places.

How the values were obtained:
[1] = Alternative aqueous infusion solutions of NUC-3373 (osmolarity, stability); assay type: physicochemical
[2] = Solubility of NUC-3373 in a range of pharmaceutically relevant solvents; assay type: physicochemical
From the text: The solubility of NUC-3373 (mixture of diastereoisomers) in a range of solvents is shown in […]

[3] = test system: cancer; test: Clinical trial of NUC-3373; assay type: in vivo; settings: infusion solutions prepared as in Example 3; early results
From the text: In a clinical trial of NUC-3373, this administration methodology has allowed NUC-3373 to be successfully administered via a CVAD.

C[C@H](NP(=O)(OC[C@H]1O[C@@H](n2cc(F)c(=O)[nH]c2=O)CC1O)Oc1cccc2ccccc12)C(=O)OCc1ccccc1 (stereo partly drawn) [NUC-3373, 5-fluoro-2′-deoxyuridine-5′-O-[1-naphthyl (benzoxy-L-alaninyl)] phosphate]
Osmolarity ([1]; high dose (3,000 mg) NUC-3373 in 500 ml 0.9% saline infusion bag): 524 mosm/1
Osmolarity ([1]; high dose NUC-3373 (10 mg/ml) using 0.45% saline): 715 mosm/l H2O
Osmolarity ([1]; high dose NUC-3373 (10 mg/ml) using WFI): 557 mosm/l H2O
Osmolarity ([1]; high dose NUC-3373 (10 mg/ml; 3,000 mg) in 250 ml 0.9% saline): 812 mosm/1
Solubility ([2]; DMA, organic solvent or mixture, read-out: Solubility): 950 mg/mL
Solubility ([2]; DMSO, organic solvent or mixture, read-out: Solubility): 948 mg/mL
Solubility ([2]; NMP, organic solvent or mixture, read-out: Solubility): 705 mg/mL
Solubility ([2]; PEG 400, organic solvent or mixture, read-out: Solubility): 422 mg/mL
Solubility ([2]; Water): extremely low
Solubility ([2]; ethanol, organic solvent or mixture, read-out: Solubility): 778 mg/mL
Solubility ([2]; propylene glycol, organic solvent or mixture, read-out: Solubility): 449 mg/mL
Solubility ([2]; water, read-out: Solubility): < 2 mg/mL
Efficacy in treating cancer [3]: some efficacy in treating cancer
